In patent publication US20230219979A1, “PYRAZOLO[1,5-a]PYRIDINE COMPOUND, PREPARATION METHOD THEREFOR AND USE THEREOF” (SHENZHEN ZHONGGE BIOLOGICAL TECHNOLOGY CO., LTD., priority 2019, published 2023):

Columns and labels:
Ba/F3-KIF5B-RET cell = molecular target: T1, Ba/F3-KIF5B-RET cell (Homo sapiens, UniProt P07949); experiment: CellTiter-Glo luminescence assay, inhibitory activity against Ba/F3-KIF5B-RET cell; format: cell-based; conditions: 72 h, read-out: Ba/F3-KIF5B-RET cell activity
T1 construct: fused on or other part: P33176 (Kinesin-1 heavy chain)
Description: (C) In Vitro Screening Experiment - CellTiter-Glo Luminescence Assay for Testing The inhibitory activity of compounds against Ba/F3-KIF5B-RET cell
• 1. The mammalian cell expression vector containing human KIF5B-RET cDNA was introduced into Ba/F3 cells using the Neon® transfection system method, and the surviving clones screened by puromycin were subjected to cell growth inhibitory function experiments and Western blotting to verify cell lines with stable and high expression of RET. • 2. Cells were cultured in RPMI 1640 medium containing 10% fetal bovine serum, 1% penicillin-streptomycin, and 2 µg/mL puromycin, and then placed in a 37° C., 5% carbon dioxide cell incubator. • 3. The test compound (5 mM stock) was diluted 2.5 folds to […] with 100% dimethyl sulfoxide; and the compound was diluted into 10 concentrations at an equal ratio of 1:3 in a 384-well dilution plate. • 4. 0.2 µL of the serially diluted compound was added to a 384-well cell culture plate (Corning, 3570) using an Echo 550 pipetting system, 2 replicate wells for each concentration, and the final concentration of dimethyl sulfoxide was 0.5% (v/v). The gradient concentrations of the test compound were 5000, 1666.7, 555.5, 185.18, 61.72, 20.57, 6.858, 2.286, 0.764, 0.254 nM. • 5. 40 µL of Ba/F3-KIF5B-RET cell suspension containing 800 cells was added to each well, and incubated for 72 h in a 5% CO2 cell incubator. • 6. 20 µL of Cell Titer-Glo reagent was added to each well of the cell culture plate, and the culture system was then shaken and mixed thoroughly for 2 min to lyse the cells, the cells were then incubated at room temperature for 30 min, and the […] signal values were then read with an Envision 2104 microplate reader. • 7. By fitting the data with XLFit 5.0 based on the parameters formula, the IC50 value was calculated as: • [formula]

Wild-type RET kinase = Wild-type RET kinase (Homo sapiens, UniProt P07949); experiment: HTRF method for testing the inhibitory activity of compounds against RET; format: biochemical; conditions: HTRF; read-out: Wild-type RET kinase
Wild-type RET kinase, sequence (P07949 29-1114): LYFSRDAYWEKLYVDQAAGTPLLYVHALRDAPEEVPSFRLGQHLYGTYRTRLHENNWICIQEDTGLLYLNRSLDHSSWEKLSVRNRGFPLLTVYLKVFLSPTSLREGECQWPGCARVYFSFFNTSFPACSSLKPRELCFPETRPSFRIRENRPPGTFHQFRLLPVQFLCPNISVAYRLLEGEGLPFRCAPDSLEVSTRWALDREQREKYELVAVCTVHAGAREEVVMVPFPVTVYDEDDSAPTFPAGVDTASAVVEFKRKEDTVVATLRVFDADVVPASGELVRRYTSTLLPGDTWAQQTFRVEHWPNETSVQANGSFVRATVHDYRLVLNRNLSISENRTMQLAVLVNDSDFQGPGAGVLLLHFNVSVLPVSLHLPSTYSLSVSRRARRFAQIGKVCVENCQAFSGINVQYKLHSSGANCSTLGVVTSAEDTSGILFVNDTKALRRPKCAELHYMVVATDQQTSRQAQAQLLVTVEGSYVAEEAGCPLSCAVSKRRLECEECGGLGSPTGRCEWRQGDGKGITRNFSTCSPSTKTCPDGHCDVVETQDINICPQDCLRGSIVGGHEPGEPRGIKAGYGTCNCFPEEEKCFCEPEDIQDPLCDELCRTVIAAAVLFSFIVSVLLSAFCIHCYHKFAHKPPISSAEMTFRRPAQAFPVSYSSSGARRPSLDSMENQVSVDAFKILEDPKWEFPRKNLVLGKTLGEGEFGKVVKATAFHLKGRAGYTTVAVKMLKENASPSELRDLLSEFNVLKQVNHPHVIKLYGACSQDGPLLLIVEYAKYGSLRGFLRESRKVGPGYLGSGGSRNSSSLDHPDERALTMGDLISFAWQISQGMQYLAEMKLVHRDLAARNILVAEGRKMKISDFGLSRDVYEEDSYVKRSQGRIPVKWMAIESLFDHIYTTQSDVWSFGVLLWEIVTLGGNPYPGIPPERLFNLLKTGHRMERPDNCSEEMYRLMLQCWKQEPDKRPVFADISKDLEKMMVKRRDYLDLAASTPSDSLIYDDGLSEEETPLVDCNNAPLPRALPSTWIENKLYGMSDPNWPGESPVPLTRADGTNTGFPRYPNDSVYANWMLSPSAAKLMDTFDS

T1 sequence (P07949 whole entry, stated change not applied, the tested form may be a part): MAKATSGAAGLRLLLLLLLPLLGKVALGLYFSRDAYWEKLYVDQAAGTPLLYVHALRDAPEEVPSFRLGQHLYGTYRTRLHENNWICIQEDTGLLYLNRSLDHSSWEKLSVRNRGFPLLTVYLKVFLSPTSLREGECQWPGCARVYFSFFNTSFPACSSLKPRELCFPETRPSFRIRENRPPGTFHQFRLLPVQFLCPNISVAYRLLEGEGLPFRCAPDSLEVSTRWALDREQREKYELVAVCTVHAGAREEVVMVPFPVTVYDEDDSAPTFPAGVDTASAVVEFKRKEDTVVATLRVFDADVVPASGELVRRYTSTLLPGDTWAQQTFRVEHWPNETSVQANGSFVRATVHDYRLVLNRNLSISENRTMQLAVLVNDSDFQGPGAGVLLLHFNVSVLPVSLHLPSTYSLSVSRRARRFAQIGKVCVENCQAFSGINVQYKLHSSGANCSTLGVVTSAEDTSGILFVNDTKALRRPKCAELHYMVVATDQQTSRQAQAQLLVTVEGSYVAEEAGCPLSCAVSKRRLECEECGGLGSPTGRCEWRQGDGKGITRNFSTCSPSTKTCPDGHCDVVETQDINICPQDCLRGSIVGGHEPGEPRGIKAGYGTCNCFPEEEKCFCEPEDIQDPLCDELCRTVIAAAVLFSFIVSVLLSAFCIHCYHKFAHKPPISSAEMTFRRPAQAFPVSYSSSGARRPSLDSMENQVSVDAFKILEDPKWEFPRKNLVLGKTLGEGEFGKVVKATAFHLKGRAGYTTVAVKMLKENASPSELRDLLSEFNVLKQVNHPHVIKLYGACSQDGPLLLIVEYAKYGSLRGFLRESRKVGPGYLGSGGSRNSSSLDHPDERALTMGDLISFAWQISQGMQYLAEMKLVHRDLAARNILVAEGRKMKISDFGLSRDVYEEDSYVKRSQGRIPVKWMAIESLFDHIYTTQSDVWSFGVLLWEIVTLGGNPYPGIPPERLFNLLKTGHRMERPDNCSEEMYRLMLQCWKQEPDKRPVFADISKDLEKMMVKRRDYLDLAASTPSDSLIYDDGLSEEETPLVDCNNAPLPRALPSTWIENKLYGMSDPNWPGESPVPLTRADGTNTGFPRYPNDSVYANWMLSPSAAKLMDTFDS

SMILES	GI50 (Ba/F3-KIF5B-RET cell) [nM]	IC50 (Wild-type RET kinase) [nM]
COc1ccc(CN2CCN(c3ccc(-c4cc(OCCN5CC6(COC6)C5)cn5ncc(C#N)c45)cn3)CC2)cn1 [Compound 13, 6-(2-(2-oxa-6-azaspiro[3.3]hept-6-yl)ethoxy)-4-(6-(4-((6-methoxypyridin-3-yl)methyl)piperazin-1-yl)pyridin-3-yl)pyrazolo[1,5-a]pyridine-3-carbonitrile]	224	0.8
COc1ccc(CN2CCN(c3ccc(-c4cc(OCCN5CCC6(CCOCC6)CC5)cn5ncc(C#N)c45)cn3)CC2)cn1 [Compound 14, 6-(2-(3-oxa-9-azaspiro[5.5]undec-9-yl)ethoxy)-4-(6-(4-((6-methoxypyridine-3-yl)methyl)piperazin-1-yl)pyridin-3-yl)pyrazolo[1,5-a]pyridine-3-carbonitrile]	260	1.6
COc1ccc(CN2CCN(c3ccc(-c4cc(OCCN5CC6CCC5C6)cn5ncc(C#N)c45)cn3)CC2)cn1 (stereo not drawn) [Compound 15, 6-(2-(2-azabicyclo[2.2.1]hept-2-yl)ethoxy)-4-(6-(4-((6-methoxypyridin-3-yl)methyl)piperazin-1-yl)pyridin-3-yl)pyrazolo[1,5-a]pyridine-3-carbonitrile]	225	1.4
COc1ccc(CN2CCN(c3ccc(-c4cc(OCCN5CC6CC6C5)cn5ncc(C#N)c45)cn3)CC2)cn1 (stereo not drawn) [Compound 16, 6-(2-(3-azabicyclo[3.1.0]hex-3-yl)ethoxy)-4-(6-(4-((6-methoxypyridin-3-yl)methyl)piperazin-1-yl)pyridin-3-yl)pyrazolo[1,5-a]pyridine-3-carbonitrile]	203	1.1
COc1ccc(CN2C3CC2CN(c2cnc(-c4cc(OCCN5CC6CCCNC6C5)cn5ncc(C#N)c45)cn2)C3)cn1 (stereo not drawn) [Compound 17, 4-(5-(6-((6-methoxypyridin-3-yl)methyl)-3,6-diazabicyclo[3.1.1]hept-3-yl)pyrazin-2-yl)-6-(2-(octahydro-6H-pyrrole[3,4-b]pyridin-6-yl)ethoxy)pyrazolo[1,5-a]pyridine-3-carbonitrile]	61.1	0.32
COc1ccc(CN2C3CC2CN(c2cnc(-c4cc(OCCN5CCC6NCCC6C5)cn5ncc(C#N)c45)cn2)C3)cn1 (stereo not drawn) [Compound 18, 4-(5-(6-((6-methoxypyridin-3-yl)methyl)-3,6-diazabicyclo[3.1.1]hept-3-yl)pyrazin-2-yl)-6-(2-(octahydro-5H-pyrrolo[3,2-c]pyridin-5-yl)ethoxy)pyrazolo[1,5-a]pyridine-3-carbonitrile]	123	0.5
COc1ccc(CN2C3CC2CN(c2cnc(-c4cc(OCCN5CC6(CCCNC6)C5)cn5ncc(C#N)c45)cn2)C3)cn1 [Compound 19, 6-(2-(2,6-diazaspiro[3.5]non-2-yl)ethoxy)-4-(5-(6-((6-methoxypyridin-3-yl)methyl)-3,6-diazabicyclo[3.1.1]heptan-3-yl)pyrazin-2-yl)pyrazolo[1,5-a]pyridine-3-carbonitrile]	183	0.77
COc1ccc(CN2C3CC2CN(c2ccc(-c4cc(NCC5CCCCC5)cn5ncc(C#N)c45)cn2)C3)cn1 [Compound 60, 6-((cyclohexylmethyl)amino)-4-(6-(6-((6-methoxypyridin-3-yl)methyl)-3,6-diazabicyclo[3.1.1]heptan-3-yl)pyridin-3-yl)pyrazolo[1,5-a]pyridine-3-carbonitrile]	–	29.6
COc1ccc(CN2C3CC2CN(c2ccc(-c4cc(NCC5CCN(C)CC5)cn5ncc(C#N)c45)cn2)C3)cn1 [Compound 64]	–	4.83
COc1ccc(CN2C3CC2CN(c2ccc(-c4cc(NCC5CCOC5)cn5ncc(C#N)c45)cn2)C3)cn1 (stereo not drawn) [Compound 65, 4-(6-(6-((6-methoxypyridin-3-yl)methyl)-3,6-diazabicyclo[3.1.1]heptyl-3-yl)pyridin-3-yl)-6-(((tetrahydrofuran-3-yl)methyl)amino)pyrazolo[1,5-a]pyridine-3-carbonitrile]	–	6.05
COc1ccc(CN2C3CC2CN(c2ccc(-c4cc(OCC(C)(C)O)cn5ncc(C#N)c45)cn2)C3)cn1 [LOXO-292, reference compound]	7.08	–
